Series [1] can be described thus: Inhibition of EV71 protease 3C expressed in Escherichia coli BL21 using substrate NMA-IEALFQGPPK(DNP)FR preincubated for 30 mins followed by substrate addition measured after 2 hrs. Details: species or system Enterovirus A71.
A short description of series [2]: Cytotoxicity against human rhabdomyosarcoma cells assessed as decrease in cell viability after 24 hrs by WST-1 assay. Format: toxicity, cell-based.
Another series deals with Enterovirus A71. Nature of the series: Antiviral activity against EV71 FY pseudotype virus infected in human rhabdomyosarcoma cells after 24 hrs by bright-glo luciferase reporter gene assay. The settings on record: Enterovirus A. Format: functional. Background: In a reporter assay the amount or activity of a reporter protein is the signal.

For orientation: IC50 means the concentration needed to halve the response being measured. Lower therefore signals higher potency. As a reminder, the Ki is the equilibrium dissociation constant of an inhibitor or competing ligand from its target. Usually CC50 stands for the concentration giving 50% cytotoxicity. On to `O=C[C@H](C[C@@H]1CCCNC1=O)NC(=O)[C@H](Cc1ccccc1)NC(=O)/C=C/c1ccccc1`, for which, in series [1], the midpoint of inhibition, the IC50, lay at 540 nM and the Ki was determined as 370 nM. The CC50 at 24 h in series [2] is above 100000 nM.

Regarding `Cc1cc(C(=O)N[C@@H](Cc2ccc(F)cc2)C(=O)N[C@H](C=O)C[C@@H]2CCCNC2=O)no1`, in series [1], 100 nM corresponded to half-maximal inhibition (IC50) and the Ki stood at 70 nM. For the same compound, the CC50 at 24 h in series [2] is above 100000 nM.

The EC50 is the concentration that produces a half-maximal response. Regarding `O=C[C@H](C[C@@H]1CCCNC1=O)NC(=O)[C@H](Cc1ccc(F)cc1)NC(=O)/C=C/c1ccc(F)cc1`, in series [1], 470 nM corresponded to half-maximal inhibition (IC50) and affinity was put at a Ki of 320 nM. Also, a half-maximal effect with Enterovirus A71 (EC50) was put at 260 nM. The CC50 at 24 h in series [2] is above 100000 nM.

For `O=C[C@H](C[C@@H]1CCCNC1=O)NC(=O)[C@H](Cc1ccc(F)cc1)NC(=O)/C=C/c1ccccc1`, in series [1], the IC50 was 440 nM and the Ki was found to be 300 nM. This compound also displayed an EC50 in the series with Enterovirus A71 of 200 nM. Besides, the CC50 at 24 h in series [2] is above 100000 nM.

In series [1], `O=C[C@H](C[C@@H]1CCCNC1=O)NC(=O)[C@H](Cc1ccccc1)NC(=O)Cc1ccccc1` gave an IC50 of 700 nM and a Ki of 480 nM. This compound also had an EC50 in the series on Enterovirus A71 of 540 nM. Moreover, in series [2], the CC50 at 24 h is above 100000 nM.

For the compound `COc1cc(/C=C/C(=O)N[C@@H](Cc2ccccc2)C(=O)N[C@H](C=O)C[C@@H]2CCCNC2=O)cc(OC)c1OC`, in series [1], the IC50 was 7270 nM and the affinity, expressed as Ki, was 4970 nM. In addition, the EC50 with Enterovirus A71 stood at 6100 nM. Besides, the CC50 at 24 h in series [2] is above 100000 nM.

`CCCC(=O)N[C@@H](Cc1ccccc1)C(=O)N[C@H](C=O)C[C@@H]1CCCNC1=O`: in series [1], the IC50 is 7680 nM and the Ki was 5250 nM. Also, the EC50 in the series on Enterovirus A71 was 4060 nM. In addition, the CC50 at 24 h in series [2] was above 100000 nM.

In series [1], `O=C[C@H](C[C@@H]1CCCNC1=O)NC(=O)[C@H](CC1CCCCC1)NC(=O)/C=C/c1ccccc1` came in with an IC50 of 1190 nM and a Ki of 810 nM. The compound also registered an EC50 in the series on Enterovirus A71 of 1040 nM. For the same compound, the CC50 at 24 h in series [2] is above 100000 nM.

Regarding `O=C[C@H](C[C@@H]1CCCNC1=O)NC(=O)[C@H](Cc1ccccc1)NC(=O)c1ccco1`, in series [1], the IC50 was 1100 nM and the affinity corresponds to a Ki of 750 nM. The same compound came in with an EC50 in the series with Enterovirus A71 of 850 nM. In addition, the CC50 at 24 h in series [2] is above 100000 nM.

`O=C[C@H](C[C@@H]1CCCNC1=O)NC(=O)[C@H](Cc1ccccc1)NC(=O)c1ccc(-c2ccccc2)cc1`: in series [1], the IC50 was 1930 nM and the Ki came out at 1320 nM. The EC50 with Enterovirus A71 turned out to be 910 nM. In series [2], the CC50 at 24 h was above 100000 nM.

Regarding `O=C[C@H](C[C@@H]1CCCNC1=O)NC(=O)[C@H](Cc1ccccc1)NC(=O)/C=C/c1ccc(F)cc1`, in series [1], the IC50 came to 590 nM and the affinity corresponds to a Ki of 400 nM. The EC50 in the series with Enterovirus A71 turned out to be 320 nM. In addition, the CC50 at 24 h in series [2] is above 100000 nM.

Regarding `CC(C)[C@H](NC(=O)/C=C/c1ccccc1)C(=O)N[C@H](C=O)C[C@@H]1CCCNC1=O`, in series [1], the IC50 came out at 5680 nM and the affinity, expressed as Ki, was 3880 nM. Besides, the EC50 in the series with Enterovirus A71 was found to be 16700 nM. Further, the CC50 at 24 h in series [2] is above 100000 nM.

As for `O=C[C@H](C[C@@H]1CCCNC1=O)NC(=O)[C@H](Cc1ccccc1)NC(=O)c1ccncc1`, in series [1], 1420 nM corresponded to half-maximal inhibition (IC50) and the Ki was found to be 970 nM. In the series on Enterovirus A71, this compound displayed a concentration for a half-maximal effect (EC50) of 8600 nM. In addition, the CC50 at 24 h in series [2] was above 100000 nM.

`COc1ccc(/C=C/C(=O)N[C@@H](Cc2ccccc2)C(=O)N[C@H](C=O)C[C@@H]2CCCNC2=O)cc1OC`: in series [1], the IC50 was determined as 1580 nM and the Ki was 1080 nM. Also, the EC50 in the series with Enterovirus A71 came to 1380 nM. The CC50 at 24 h in series [2] was above 100000 nM.

In series [1], `CCCCCC(=O)N[C@@H](Cc1ccccc1)C(=O)N[C@H](C=O)C[C@@H]1CCCNC1=O` showed an IC50 of 13600 nM and a Ki of 9270 nM. In the series on Enterovirus A71, this compound displayed an EC50 of 6450 nM. The CC50 at 24 h in series [2] is above 100000 nM.

In series [1], `COc1ccc(/C=C/C(=O)N[C@@H](Cc2ccc(F)cc2)C(=O)N[C@H](C=O)C[C@@H]2CCCNC2=O)cc1` registered an IC50 of 410 nM and a Ki of 280 nM. This compound came in with an EC50 in the series on Enterovirus A71 of 180 nM. Further, the CC50 at 24 h in series [2] was above 100000 nM.

In series [1], `O=C[C@H](C[C@@H]1CCCNC1=O)NC(=O)[C@H](Cc1ccccc1)NC(=O)c1cccs1` gave an IC50 of 420 nM and a Ki of 290 nM. The compound further returned an EC50 with Enterovirus A71 of 210 nM. The CC50 at 24 h in series [2] was above 100000 nM.

In series [1], `O=C[C@H](C[C@@H]1CCCNC1=O)NC(=O)[C@H](Cc1ccccc1)NC(=O)CCc1ccccc1` displayed an IC50 of 750 nM and a Ki of 510 nM. Besides, the EC50 in the series with Enterovirus A71 was found to be 570 nM. Besides, the CC50 at 24 h in series [2] was above 100000 nM.

In series [1], `O=C[C@H](C[C@@H]1CCCNC1=O)NC(=O)[C@H](Cc1ccc(F)cc1)NC(=O)c1cccs1` displayed an IC50 of 290 nM and a Ki of 200 nM. Also, a half-maximal response in the series with Enterovirus A71 (EC50) required 160 nM. Besides, in series [2], the CC50 at 24 h was above 100000 nM.

In the case of `COc1ccc(/C=C/C(=O)N[C@@H](Cc2ccccc2)C(=O)N[C@H](C=O)C[C@@H]2CCCNC2=O)cc1`, in series [1], the IC50 worked out at 490 nM and the affinity, expressed as Ki, was 330 nM. Besides, in the series with Enterovirus A71, it took 230 nM to reach a half-maximal effect (EC50). The CC50 at 24 h in series [2] was above 100000 nM.

In series [1], `CC(C)C[C@H](NC(=O)/C=C/c1ccccc1)C(=O)N[C@H](C=O)C[C@@H]1CCCNC1=O` returned an IC50 of 2780 nM and a Ki of 1900 nM. The same compound returned an EC50 with Enterovirus A71 of 2360 nM. For the same compound, in series [2], the CC50 at 24 h was above 100000 nM.

`O=C[C@H](C[C@@H]1CCCNC1=O)NC(=O)[C@H](Cc1ccccc1)NC(=O)c1cccnc1`: in series [1], 440 nM corresponded to half-maximal inhibition (IC50) and the Ki worked out at 300 nM. Further, the half-maximal effective concentration (EC50) with Enterovirus A71 came out at 3550 nM. Also, the CC50 at 24 h in series [2] is above 100000 nM.

Regarding `Cc1cc(C(=O)N[C@@H](Cc2ccccc2)C(=O)N[C@H](C=O)C[C@@H]2CCCNC2=O)no1`, in series [1], the IC50 was found to be 220 nM and the Ki was 220 nM. The compound also had an EC50 with Enterovirus A71 of 180 nM. In addition, the CC50 at 24 h in series [2] is above 100000 nM.

As for `O=C[C@H](C[C@@H]1CCCNC1=O)NC(=O)[C@H](Cc1ccccc1)NC(=O)c1ccccc1`, in series [1], 550 nM corresponded to half-maximal inhibition (IC50) and the Ki stood at 380 nM. In the series on Enterovirus A71, the EC50 is 380 nM. In series [2], the CC50 at 24 h is above 100000 nM.

Source of the values: ChEMBL document CHEMBL3875160, “Structure-activity relationship study of peptidomimetic aldehydes as enterovirus 71 3C protease inhibitors” (Eur J Med Chem, 2016).
